Experimental data: ChEMBL document CHEMBL1221281, “Discovery of 2-(4-((1H-1,2,4-triazol-1-yl)methyl)-5-(4-bromophenyl)-1-(2-chlorophenyl)-1H-pyrazol-3-yl)-5-tert-butyl-1,3,4-thiadiazole (GCC2680) as a potent, selective and orally efficacious cannabinoid-1 receptor antagonist” (Bioorg Med Chem, 2010)
pEC50, pIC50: −log10 of the molar value. Active and inactive are the calls of the source. The calls are words filed in the database; no cut-off is given here.

What was measured:
[1] = Cmax in Sprague-Dawley rat at 5 mg/kg, po; format: ADME, organism-based; parameters: dose 5 mg/kg, route oral; settings: in vivo
Cytochrome P450 1A2 = molecular target: T1, Cytochrome P450 1A2 (Homo sapiens, UniProt P05177); experiment: Inhibition of CYP1A2 in human liver microsomes after 30 mins; format: ADME, Microsome
T1 sequence (P05177 whole entry): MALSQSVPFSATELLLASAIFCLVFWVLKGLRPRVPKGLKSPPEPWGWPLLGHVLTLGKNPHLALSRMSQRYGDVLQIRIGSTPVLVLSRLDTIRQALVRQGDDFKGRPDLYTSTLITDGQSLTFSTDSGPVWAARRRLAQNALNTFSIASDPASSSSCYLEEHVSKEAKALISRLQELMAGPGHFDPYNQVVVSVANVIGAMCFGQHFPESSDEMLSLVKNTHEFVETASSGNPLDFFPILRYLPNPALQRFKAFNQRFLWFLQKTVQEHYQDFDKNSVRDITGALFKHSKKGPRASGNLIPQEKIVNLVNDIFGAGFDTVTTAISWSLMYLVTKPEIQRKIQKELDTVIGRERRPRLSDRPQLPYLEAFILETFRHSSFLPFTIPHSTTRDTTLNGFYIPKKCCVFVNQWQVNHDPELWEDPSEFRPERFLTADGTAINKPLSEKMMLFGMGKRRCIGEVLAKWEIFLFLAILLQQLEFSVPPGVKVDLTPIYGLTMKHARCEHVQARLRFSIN

Mus musculus [2] = experiment: Antiobesity activity in po dosed diet-induced obesity C57BL/6 mouse model assessed as reduction of body weight administered qd for 13 days; format: functional, organism-based
Vero = experiment: Cytotoxicity against african green monkey Vero cells; format: cell-based; settings: Chlorocebus sabaeus
HCT-116 = experiment: Cytotoxicity against human HCT116 cells; format: cell-based
[3] = Cytotoxicity against human HuH7 cells; format: cell-based; settings: Huh-7
Rattus norvegicus [4] = experiment: Acute toxicity in rat assessed as mortality at 250 mg/kg, po qd for 7 days; format: organism-based; parameters: dose 250 mg/kg, route oral; settings: in vivo, 168 h
Cytochrome P450 3A4 = Cytochrome P450 3A4 (Homo sapiens, UniProt P08684); experiment: Inhibition of CYP3A4 in human liver microsomes after 30 mins; format: ADME, Microsome
Rattus norvegicus [5] = experiment: Clast in Sprague-Dawley rat at 5 mg/kg, po; format: ADME, organism-based; parameters: dose 5 mg/kg, route oral; settings: in vivo
Rattus norvegicus [6] = experiment: AUC (0 to infinity) in Sprague-Dawley rat at 5 mg/kg, po; format: ADME, organism-based, Plasma; parameters: time infinity, dose 5 mg/kg, route oral; settings: in vivo
Mus musculus [7] = experiment: Antiobesity activity in po dosed diet-induced obesity C57BL/6 mouse model assessed as reduction mean white adipocytes diameter qd for 14 days; format: functional, organism-based
Rattus norvegicus [8] = experiment: Antiobesity activity in diet-induced obesity Sprague-Dawley rat model assessed as reduction of body weight administered at 10 mg/kg, po qd for 13 days; format: functional; parameters: scale not given: the % may be the effect or the level left
[9] = Oral bioavailability in Sprague-Dawley rat at 5 mg/kg, po; format: ADME, organism-based; settings: in vivo
[10] = molecular target: Voltage-gated inwardly rectifying potassium channel KCNH2 (Homo sapiens, UniProt Q12809); experiment: Inhibition of human ERG at holding potential of -80 mV to +40 mV
Rattus norvegicus [11] = experiment: Acute toxicity in rat assessed as mortality at 500 mg/kg, po qd for 7 days; format: organism-based; parameters: dose 500 mg/kg, route oral; settings: in vivo, 168 h
[12] = Half life in Sprague-Dawley rat at 5 mg/kg, po; format: ADME, organism-based; parameters: dose 5 mg/kg, route oral; settings: in vivo
Cannabinoid receptor 1 = Cannabinoid receptor 1 (Rattus norvegicus, UniProt P20272)
Description: Displacement of [3H]CP-55940 from CB1 receptor in Sprague-Dawley rat cerebellum after 1 hr by liquid scintillation counting

Mus musculus [13] = experiment: Antidiabetic activity in ob/ob mouse at 10 mg/kg, po qd for 14 days; format: functional, organism-based; parameters: dose 10 mg/kg
Cytochrome P450 2C9 = Cytochrome P450 2C9 (Homo sapiens, UniProt P11712); experiment: Inhibition of CYP2C9 in human liver microsomes after 30 mins; format: ADME, Microsome
Rattus norvegicus [14] = experiment: Acute toxicity in po dosed rat; format: organism-based; settings: in vivo
Mus musculus [15] = experiment: Antidiabetic activity in diet-induced obesity mouse model at 10 mg/kg, po qd for 14 days; format: functional, organism-based; parameters: dose 10 mg/kg
Nucleic Acid = experiment: Induction of DNA damage up to 50 uM after 2 hrs by comet assay; format: nucleic-acid assay
[16] = Selectivity ratio of IC50 for human CB2 receptor to IC50 for CB1 receptor in Sprague-Dawley rat cerebellum; format: tissue-based
Rattus norvegicus [17] = experiment: AUC (0 to infinity) in Sprague-Dawley rat at 1 mg/kg, iv; format: ADME, organism-based, Plasma; parameters: time infinity, dose 1 mg/kg, route intravenous; settings: in vivo
Mus musculus [18] = experiment: Antiobesity activity in diet-induced obesity C57BL/6 mouse model assessed as reduction of body weight at 10 mg/kg, po qd for 14 days; format: functional; parameters: scale not given: the % may be the effect or the level left
HEK293 = experiment: Cytotoxicity against human HEK293 cells; format: cell-based
Mus musculus [19] = experiment: Antiobesity activity in diet-induced obesity C57BL/6 mouse model assessed as reduction of body weight at 20 mg/kg, po qd for 13 days; format: functional; parameters: scale not given: the % may be the effect or the level left
Rattus norvegicus [20] = experiment: Acute toxicity in rat assessed as mortality at 1000 mg/kg, po qd for 7 days; format: organism-based; parameters: dose 1000 mg/kg, route oral; settings: in vivo, 168 h
Cytochrome P450 2D6 = Cytochrome P450 2D6 (Homo sapiens, UniProt P10635); experiment: Inhibition of CYP2D6 in human liver microsomes after 30 mins; format: ADME, Microsome
Mus musculus [21] = experiment: Antidiabetic activity in db/db mouse at 10 mg/kg, po qd for 14 days; format: functional, organism-based; parameters: dose 10 mg/kg
Rattus norvegicus [22] = experiment: Acute toxicity in rat assessed as mortality at 1500 mg/kg, po; format: organism-based; parameters: dose 1500 mg/kg, route oral; settings: in vivo
Rattus norvegicus [23] = experiment: Acute toxicity in rat assessed as mortality at 2000 mg/kg, po; format: organism-based; parameters: dose 2000 mg/kg, route oral; settings: in vivo
Mus musculus [24] = experiment: Antiobesity activity in diet-induced obesity C57BL/6 mouse model assessed as reduction of body weight at 3 mg/kg, po qd for 13 days; format: functional
[25] = Tmax in Sprague-Dawley rat at 5 mg/kg, po; format: ADME, organism-based; parameters: dose 5 mg/kg, route oral; settings: in vivo
[26] = Clearance in Sprague-Dawley rat at 1 mg/kg, iv; format: ADME, organism-based; parameters: dose 1 mg/kg, route intravenous; settings: in vivo
[27] = Cmax in Sprague-Dawley rat at 1 mg/kg, iv; format: ADME, organism-based; parameters: dose 1 mg/kg, route intravenous; settings: in vivo
Mus musculus [28] = experiment: Antiobesity activity in diet-induced obesity C57BL/6 mouse model assessed as reduction of body weight at 10 mg/kg, po qd for 13 days; format: functional; parameters: scale not given: the % may be the effect or the level left
Cannabinoid receptor 2 = Cannabinoid receptor 2 (Homo sapiens, UniProt P34972); experiment: Displacement of [3H]WIN-55212-2 from human CB2 receptor expressed in CHO-K1 cells after 1 hr by liquid scintillation counting; format: cell-based
[29] = Half life in Sprague-Dawley rat at 1 mg/kg, iv; format: ADME, organism-based; parameters: dose 1 mg/kg, route intravenous; settings: in vivo
[30] = Mutagenic activity in Salmonella Typhimurium TA100 assessed as number of spontaneous and drug-induced revertants after 48 hrs by Ames test; format: toxicity; settings: salmonella enterica subsp. enterica serovar typhimurium
Rattus norvegicus [31] = experiment: Acute toxicity in rat assessed as mortality at 125 mg/kg, po qd for 7 days; format: organism-based; parameters: dose 125 mg/kg, route oral; settings: in vivo, 168 h
[32] = Ratio of drug level in brain to plasma in Sprague-Dawley rat; format: ADME
Rattus norvegicus [33] = experiment: Clast in Sprague-Dawley rat at 1 mg/kg, iv; format: ADME, organism-based; parameters: dose 1 mg/kg, route intravenous; settings: in vivo
[34] = Acute toxicity in po dosed rat assessed as mortality; format: organism-based; settings: in vivo

Sequence of Cytochrome P450 2D6 (P10635 whole entry): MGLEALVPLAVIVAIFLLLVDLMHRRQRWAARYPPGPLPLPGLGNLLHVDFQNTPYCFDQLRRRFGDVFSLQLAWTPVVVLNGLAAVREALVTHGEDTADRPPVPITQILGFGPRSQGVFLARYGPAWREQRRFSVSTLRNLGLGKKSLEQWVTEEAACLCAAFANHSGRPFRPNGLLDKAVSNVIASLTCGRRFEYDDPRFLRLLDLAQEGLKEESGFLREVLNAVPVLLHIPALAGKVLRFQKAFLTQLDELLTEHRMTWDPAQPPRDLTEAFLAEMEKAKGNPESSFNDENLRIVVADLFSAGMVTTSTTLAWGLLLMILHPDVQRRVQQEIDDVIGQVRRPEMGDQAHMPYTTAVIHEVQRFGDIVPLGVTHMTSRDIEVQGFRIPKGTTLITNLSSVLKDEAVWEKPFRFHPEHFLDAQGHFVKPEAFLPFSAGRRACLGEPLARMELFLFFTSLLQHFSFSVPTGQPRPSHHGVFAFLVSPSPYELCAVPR
Sequence of Cannabinoid receptor 2 (P34972 whole entry): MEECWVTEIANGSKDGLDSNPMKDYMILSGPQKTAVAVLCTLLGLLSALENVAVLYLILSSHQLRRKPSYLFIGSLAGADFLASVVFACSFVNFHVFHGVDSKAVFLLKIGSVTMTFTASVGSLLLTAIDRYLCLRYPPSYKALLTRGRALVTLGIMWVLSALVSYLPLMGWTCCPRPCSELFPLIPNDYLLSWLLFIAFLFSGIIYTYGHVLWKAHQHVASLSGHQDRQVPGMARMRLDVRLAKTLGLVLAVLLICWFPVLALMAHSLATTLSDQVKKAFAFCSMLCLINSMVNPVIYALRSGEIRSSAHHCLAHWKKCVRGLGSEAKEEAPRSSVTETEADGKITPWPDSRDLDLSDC
Sequence of Cytochrome P450 2C9 (P11712 whole entry): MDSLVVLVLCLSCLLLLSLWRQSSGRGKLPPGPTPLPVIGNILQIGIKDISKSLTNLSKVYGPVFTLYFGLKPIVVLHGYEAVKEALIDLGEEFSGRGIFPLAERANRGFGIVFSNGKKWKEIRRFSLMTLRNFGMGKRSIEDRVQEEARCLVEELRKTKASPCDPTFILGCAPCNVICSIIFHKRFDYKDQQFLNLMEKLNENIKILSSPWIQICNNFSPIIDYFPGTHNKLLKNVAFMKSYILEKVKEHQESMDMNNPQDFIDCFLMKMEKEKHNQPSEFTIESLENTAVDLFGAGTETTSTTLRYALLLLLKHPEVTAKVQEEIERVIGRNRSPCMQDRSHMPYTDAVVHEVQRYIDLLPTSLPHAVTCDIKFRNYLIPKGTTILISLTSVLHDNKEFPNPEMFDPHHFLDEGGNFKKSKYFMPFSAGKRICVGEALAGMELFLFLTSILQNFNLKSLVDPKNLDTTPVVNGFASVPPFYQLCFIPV
Sequence of Cannabinoid receptor 1 (P20272 whole entry): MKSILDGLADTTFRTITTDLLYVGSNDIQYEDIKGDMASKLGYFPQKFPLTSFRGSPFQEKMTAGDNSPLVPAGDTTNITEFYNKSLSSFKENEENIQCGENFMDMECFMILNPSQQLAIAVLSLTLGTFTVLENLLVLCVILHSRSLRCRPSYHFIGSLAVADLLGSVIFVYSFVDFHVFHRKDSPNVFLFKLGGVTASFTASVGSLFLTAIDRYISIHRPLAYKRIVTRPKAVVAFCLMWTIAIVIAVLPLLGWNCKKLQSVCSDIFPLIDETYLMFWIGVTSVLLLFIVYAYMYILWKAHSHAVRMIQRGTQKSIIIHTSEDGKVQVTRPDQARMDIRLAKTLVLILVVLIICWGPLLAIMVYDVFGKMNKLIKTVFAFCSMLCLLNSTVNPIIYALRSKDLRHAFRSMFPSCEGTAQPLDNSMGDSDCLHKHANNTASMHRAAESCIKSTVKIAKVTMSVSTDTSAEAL
Sequence of Cytochrome P450 3A4 (P08684 whole entry): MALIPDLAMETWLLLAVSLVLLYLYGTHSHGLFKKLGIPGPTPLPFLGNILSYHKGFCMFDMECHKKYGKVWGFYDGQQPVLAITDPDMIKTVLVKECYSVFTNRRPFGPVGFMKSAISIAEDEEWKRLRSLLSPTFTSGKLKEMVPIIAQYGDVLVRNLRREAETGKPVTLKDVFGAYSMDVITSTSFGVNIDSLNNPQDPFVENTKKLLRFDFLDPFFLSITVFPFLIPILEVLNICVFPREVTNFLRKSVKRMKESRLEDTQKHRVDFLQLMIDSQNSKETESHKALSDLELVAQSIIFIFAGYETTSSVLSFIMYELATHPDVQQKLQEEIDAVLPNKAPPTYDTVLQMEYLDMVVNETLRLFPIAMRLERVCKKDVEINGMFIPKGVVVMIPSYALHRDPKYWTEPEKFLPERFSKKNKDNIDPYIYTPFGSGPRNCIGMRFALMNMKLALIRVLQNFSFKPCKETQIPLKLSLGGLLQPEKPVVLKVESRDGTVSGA
Sequence of Voltage-gated inwardly rectifying potassium channel KCNH2 (Q12809 whole entry): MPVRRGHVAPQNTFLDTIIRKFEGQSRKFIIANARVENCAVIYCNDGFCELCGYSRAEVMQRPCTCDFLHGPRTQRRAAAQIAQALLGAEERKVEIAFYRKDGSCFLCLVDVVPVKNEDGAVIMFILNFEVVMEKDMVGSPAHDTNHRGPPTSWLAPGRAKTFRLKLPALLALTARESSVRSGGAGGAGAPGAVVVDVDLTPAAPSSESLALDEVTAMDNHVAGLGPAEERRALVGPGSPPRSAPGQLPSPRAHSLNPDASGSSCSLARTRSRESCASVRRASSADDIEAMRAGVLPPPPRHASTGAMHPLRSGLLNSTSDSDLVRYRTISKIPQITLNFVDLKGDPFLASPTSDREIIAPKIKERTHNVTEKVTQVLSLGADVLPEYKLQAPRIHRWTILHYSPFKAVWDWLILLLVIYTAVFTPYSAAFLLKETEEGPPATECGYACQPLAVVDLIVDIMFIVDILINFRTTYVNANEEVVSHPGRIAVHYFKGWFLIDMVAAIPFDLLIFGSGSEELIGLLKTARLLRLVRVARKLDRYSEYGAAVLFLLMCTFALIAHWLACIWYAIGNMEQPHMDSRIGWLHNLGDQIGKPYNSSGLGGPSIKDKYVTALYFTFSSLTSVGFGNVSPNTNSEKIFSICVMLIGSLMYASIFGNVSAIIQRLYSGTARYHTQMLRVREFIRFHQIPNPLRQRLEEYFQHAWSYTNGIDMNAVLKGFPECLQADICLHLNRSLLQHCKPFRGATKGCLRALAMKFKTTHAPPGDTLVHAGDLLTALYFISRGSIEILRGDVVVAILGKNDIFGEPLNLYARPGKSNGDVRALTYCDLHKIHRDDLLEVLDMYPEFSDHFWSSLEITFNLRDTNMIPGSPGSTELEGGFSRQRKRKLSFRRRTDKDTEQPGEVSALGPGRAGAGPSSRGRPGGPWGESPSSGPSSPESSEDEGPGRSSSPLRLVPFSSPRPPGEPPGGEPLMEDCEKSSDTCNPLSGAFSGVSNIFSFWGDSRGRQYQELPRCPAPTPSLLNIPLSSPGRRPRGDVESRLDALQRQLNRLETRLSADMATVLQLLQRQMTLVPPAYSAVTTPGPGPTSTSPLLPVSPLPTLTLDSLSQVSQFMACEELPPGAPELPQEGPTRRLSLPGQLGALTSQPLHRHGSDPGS

SMILES: CC(C)(C)c1nnc(-c2nn(-c3ccccc3Cl)c(-c3ccc(Br)cc3)c2Cn2cncn2)s1
- Cmax [1]: 1530 ng/mL
- pIC50 (Cytochrome P450 1A2): < 4.70
- Activity (Mus musculus [2]): Dose-dependent effect
- pEC50 (Vero): < 4.00
- pEC50 (HCT-116): < 4.00
- pEC50 [3]: < 4.00
- Activity (Rattus norvegicus [4]): Non-toxic
- pIC50 (Cytochrome P450 3A4): < 4.70
- Clast (Rattus norvegicus [5]): 30 ng/mL
- AUC (Rattus norvegicus [6]): 369.72 min/µg/mL
- Activity (Mus musculus [7]): Dose-dependent effect
- Activity (Rattus norvegicus [8]): 15.59%
- bioavailability [9]: 61.7%
- pIC50 [10]: 4.98
- Activity (Rattus norvegicus [11]): Non-toxic
- half-life [12]: 7.11 h
- pIC50 (Cannabinoid receptor 1): 9.17
- Activity (Mus musculus [13]): Active
- pIC50 (Cytochrome P450 2C9): < 4.70
- Activity (Rattus norvegicus [14]): 125 mg/kg
- Activity (Mus musculus [15]): Active
- Activity (Nucleic Acid): Non-toxic
- Ratio IC50 [16]: 807
- AUC (Rattus norvegicus [17]): 119.9 min/µg/mL
- Activity (Mus musculus [18]): 32.55%
- pEC50 (HEK293): < 4.00
- Activity (Mus musculus [19]): 38.06%
- Activity (Rattus norvegicus [20]): Non-toxic
- pIC50 (Cytochrome P450 2D6): < 4.70
- Activity (Mus musculus [21]): Active
- Activity (Rattus norvegicus [22]): Non-toxic
- Activity (Rattus norvegicus [23]): Non-toxic
- Activity (Mus musculus [24]): Active
- Tmax [25]: 1 h
- clearance [26]: 10.7 mL/min/kg
- Cmax [27]: 2500 ng/mL
- Activity (Mus musculus [28]): 34.9%
- pIC50 (Cannabinoid receptor 2): 6.26
- half-life [29]: 5.3 h
- Activity [30]: Non-toxic
- Activity (Rattus norvegicus [31]): Non-toxic
- BPR [32]: 58%
- Clast (Rattus norvegicus [33]): 50 ng/mL
- LD50 [34]: > 2000 mg/kg
